# Laboratory results as given in EP3698777A1, “COMPOSITION FOR PREVENTING AND TREATING DEPRESSIVE AND COGNITIVE SYMPTOMS” (NEURAXPHARM ITALY S.P.A., priority 2019, dated 2020).
# Key:
# [1] = ORAC test (Oxygen Radical Absorbance Capacity); settings: single ingredients taken at their percentage composition in the combination; combination = 1000 mg fish oil + 600 mg NAC + 30 mg dry saffron extract; Figure 2
# Description: The ORAC method was used to assess the antioxidant activity of the substances of the invention by measuring the ability to protect the fluorescent probe (fluorescein) from damage due to peroxyl radical generated by spontaneous decomposition of AAPH (2,2'-azobis (2-amidine-propane) dihydrochloride) at 37°C, with consequent loss of fluorescence. The protective effect of the substances of the invention, alone or in combination, was measured by evaluating the longer area of time/fluorescence intensity under the curve (AUC) of the sample compared to the blank (AUC), wherein substances are not present. Trolox was the antioxidant used as the calibration standard, the ORAC results being expressed as Trolox equivalent micromol/gram of sample (i.e. µmol TE/g). […]
# The ORAC test was performed by adding 150 µL of working solution with fluorescein to all the microplate wells, followed by the addition of 25 µL of diluted buffer (white), 50 µL of diluted buffer (control), 25 µL of standard (Trolox 6.25 - 50 µM) or 25 µL of the samples prepared before filling the microplate wells. […] The plate was immediately transferred to the plate reader and the fluorescence was measured every minute for 35 minutes. Fluorescence readings refer to the highest reading of the wells in which no AAPH (controls) is added.
# The net AUC of the standards and samples were calculated. […]
# [2] = test system: Human microglia cells HMC3; assay: Cell viability test (MTT assay); type: cell-based; settings: 24 hours incubation, saffron extract 1 or 3 µg/mL, NAC 200 or 600 µM, fish oil 8.5 or 28.5 µg/mL, Figure 1
# Description: Human microglia cells HMC3 (ATCC® CRL-3304™) were cultured in EMEM (Eagle's minimum essential medium) containing 10% FBS (fetal bovine serum) and PSG (1000 U/ml of Penicillin, 10000 ug/ml of Streptomycin, 29.2 mg/ml of L-Glutamine). The HMC3 cells were placed in 96-well plates with a density of 40,000 cells/well and let to adhere overnight in an incubator at 37°C, 5% CO2. The cells were then treated or not with different concentrations of the substances of the invention (saffron extract (1 µg/mL or 3 µg/mL), NAC (200 µM or 600 µM) or fish oil (8.5 µg/mL or 28.5 µg/mL) dissolved in EMEM with 10% FBS). After 24 hours incubation, cell viability was determined by MTT assay. Then, 10 µL of MTT (5 mg/mL solution) were added to the cells and incubated for 1 hour, followed by removal of the medium and dissolution of the crystals formed in 100 µL of isopropanol. Absorbance at 570 nm was measured with a spectrophotometer (SEAC SIRIO S) and the cell viability was expressed as a percentage of untreated control cells.
smiles,measurement,setting,value
"CC(=O)N[C@@H](CS)C(=O)O [NAC, N-acetylcysteine]",antioxidant activity (ORAC),[1],24.04 TE µmol/g
same,cell viability,[2],do not influence the cell viability
